Target: human recombinant BTK (Homo sapiens (Human), UniProt Q06187)
Assay: BTK Enzymatic Activity Assay (Caliper-based kinase assay)
Format: biochemical
Settings: human recombinant BTK (0.5 nM), ATP (16 μM), peptide substrate (1 μM), room temperature for 3 h
Method: A Caliper-based kinase assay (Caliper Life Sciences, Hopkinton, Mass.) was used to measure inhibition of BTK kinase activity of a compound of the present disclosure. Serial dilutions of test compounds were incubated with human recombinant BTK (0.5 nM), ATP (16 μM) and a phosphoacceptor peptide substrate FAM-GEEPLYWSFPAKKK-NH2 (1 μM) at room temperature for 3 h. The reaction was then terminated with EDTA, final concentration 20 mM and the phosphorylated reaction product was quantified on a Caliper Desktop Profiler (Caliper LabChip 3000). Percent inhibition was calculated for each compound dilution and the concentration that produced 50% inhibition was calculated. This value is presented as the IC50.

human recombinant BTK, sequence (Q06187 whole entry): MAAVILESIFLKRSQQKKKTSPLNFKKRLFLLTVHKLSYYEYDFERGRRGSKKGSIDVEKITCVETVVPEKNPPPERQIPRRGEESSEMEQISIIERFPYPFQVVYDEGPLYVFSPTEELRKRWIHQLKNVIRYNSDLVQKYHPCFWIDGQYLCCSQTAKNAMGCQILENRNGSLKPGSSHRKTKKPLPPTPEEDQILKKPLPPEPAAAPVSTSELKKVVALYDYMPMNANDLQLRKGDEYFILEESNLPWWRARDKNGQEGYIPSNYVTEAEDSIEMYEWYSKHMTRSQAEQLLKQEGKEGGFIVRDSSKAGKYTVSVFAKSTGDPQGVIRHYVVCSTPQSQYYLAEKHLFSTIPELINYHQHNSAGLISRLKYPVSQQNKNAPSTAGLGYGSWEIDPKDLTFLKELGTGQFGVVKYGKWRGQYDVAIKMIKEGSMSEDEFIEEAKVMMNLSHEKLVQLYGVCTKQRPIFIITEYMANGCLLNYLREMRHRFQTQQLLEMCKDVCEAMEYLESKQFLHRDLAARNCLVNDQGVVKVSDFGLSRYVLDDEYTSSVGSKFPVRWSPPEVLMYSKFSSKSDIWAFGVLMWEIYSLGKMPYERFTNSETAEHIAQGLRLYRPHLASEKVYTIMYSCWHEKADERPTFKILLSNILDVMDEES

Row | SMILES | IC50 [nM]
1 | CC(C)(C)C=C(C#N)C(=O)N1CCC[C@@H](n2nc(-c3ccc(Oc4ccccc4)cc3F)c3c(N)nccc32)C1 [Compound 9, (R)-2-(3-(4-amino-3-(2-fluoro-4-phenoxyphenyl)-1H-pyrazolo[4,3-c]pyridin-1-yl)piperidine-1-carbonyl)-4,4-dimethylpent-2-enenitrile] | 8.6
2 | CC(C)(/C=C(\C#N)C(=O)N1CCC[C@@H](n2nc(-c3ccc(Oc4ccccc4)cc3F)c3c(N)nccc32)C1)N1CCOCC1 [Compound 11, (R)-2-(3-(4-amino-3-(2-fluoro-4-phenoxyphenyl)-1H-pyrazolo[4,3-c]pyridin-1-yl)piperidine-1-carbonyl)-4-methyl-4-morpholinopent-2-enenitrile] | 2
3 | CC1(C=C(C#N)C(=O)N2CCC[C@@H](c3nc(-c4ccc(Oc5ccccc5)cc4)c4c(N)nccn34)C2)CCOCC1 [Compound 54, (R)-2-(3-(8-amino-1-(4-phenoxyphenyl)imidazo[1,5-a]pyrazin-3-yl)piperidine-1-carbonyl)-3-(4-methyltetrahydro-2H-pyran-4-yl)acrylonitrile] | 1.7
4 | CN1CCN(C(=O)C(C#N)=CC(C)(C)C)C[C@@H]1c1nc(-c2ccc(Oc3ccccc3)cc2)c2c(N)nccn12 [Compound 66, (R)-2-(3-(8-amino-1-(4-phenoxyphenyl)imidazo[1,5-a]pyrazin-3-yl)-4-methylpiperazine-1-carbonyl)-4,4-dimethylpent-2-enenitrile] | 0.3
5 | CN1CCN(C(=O)C(C#N)=CC2(C)CCOCC2)C[C@@H]1c1nc(-c2ccc(Oc3ccccc3)cc2)c2c(N)nccn12 [Compound 67, (R)-2-(3-(8-amino-1-(4-phenoxyphenyl)imidazo[1,5-a]pyrazin-3-yl)-4-methylpiperazine-1-carbonyl)-3-(4-methyltetrahydro-2H-pyran-4-yl)acrylonitrile] | 0.2
6 | CN1CCN(C(C)(C)C=C(C#N)C(=O)N2CCC[C@@H](n3nc(-c4ccc(Oc5ccccc5)cc4F)c4c(N)nccc43)C2)CC1=O [Compound 72, (R)-2-(3-(4-amino-3-(2-fluoro-4-phenoxyphenyl)-1H-pyrazolo[4,3-c]pyridin-1-yl)piperidine-1-carbonyl)-4-methyl-4-(4-methyl-3-oxopiperazin-1-yl)pent-2-enenitrile] | 2

Continued, values first:

Row | IC50 [nM] | SMILES
7 | 1.9 | CN1CCN(C(C)(C)/C=C(\C#N)C(=O)N2CCC[C@@H](n3nc(-c4ccc(Oc5ccccc5)cc4F)c4c(N)nccc43)C2)CC1 [Compound 10, (R)-2-(3-(4-amino-3-(2-fluoro-4-phenoxyphenyl)-1H-pyrazolo[4,3-c]pyridin-1-yl)piperidine-1-carbonyl)-4-methyl-4-(4-methylpiperazin-1-yl)pent-2-enenitrile]
8 | 1.2 | COC(=O)N1CCN(C(C)(C)C=C(C#N)C(=O)N2CCC[C@@H](c3nc(-c4ccc(Oc5ccccc5)cc4)c4c(N)nccn34)C2)CC1 [Compound 56, (R)-methyl 4-(5-(3-(8-amino-1-(4-phenoxyphenyl)imidazo[1,5-a]pyrazin-3-yl)piperidin-1-yl)-4-cyano-2-methyl-5-oxopent-3-en-2-yl)piperazine-1-carboxylate]
9 | 1.1 | CC(=O)N1CCN(C(C)(C)C=C(C#N)C(=O)N2CCC[C@@H](c3nc(-c4ccc(Oc5ccccc5)cc4)c4c(N)nccn34)C2)CC1 [Compound 57, (R)-4-(4-acetylpiperazin-1-yl)-2-(3-(8-amino-1-(4-phenoxyphenyl)imidazo[1,5-a]pyrazin-3-yl)piperidine-1-carbonyl)-4-methylpent-2-enenitrile]
10 | 2.8 | COC(=O)N1CCN(C(C)(C)C=C(C#N)C(=O)N2CCC[C@@H](c3nc(-c4ccc(Oc5ccccc5)cc4F)c4c(N)nccn34)C2)CC1 [Compound 58, (R)-methyl 4-(5-(3-(8-amino-1-(2-fluoro-4-phenoxyphenyl)imidazo[1,5-a]pyrazin-3-yl)piperidin-1-yl)-4-cyano-2-methyl-5-oxopent-3-en-2-yl)piperazine-1-carboxylate]
11 | 1.4 | CC(=O)N1CCN(C(C)(C)C=C(C#N)C(=O)N2CCC[C@@H](c3nc(-c4ccc(Oc5ccccc5)cc4F)c4c(N)nccn34)C2)CC1 [Compound 59, (R)-4-(4-acetylpiperazin-1-yl)-2-(3-(8-amino-1-(2-fluoro-4-phenoxyphenyl)imidazo[1,5-a]pyrazin-3-yl)piperidine-1-carbonyl)-4-methylpent-2-enenitrile]
12 | 2.2 | CC(C)(C=C(C#N)C(=O)N1CCC[C@@H](c2nc(-c3ccc(Oc4ccccc4)cc3F)c3c(N)nccn23)C1)N1CCN2C(=O)CC[C@H]2C1 [Compound 62, 2-((R)-3-(8-amino-1-(2-fluoro-4-phenoxyphenyl)imidazo[1,5-a]pyrazin-3-yl)piperidine-1-carbonyl)-4-methyl-4-((S)-6-oxohexahydropyrrolo[1,2-a]pyrazin-2(1H)-yl)pent-2-enenitrile]
13 | 0.9 | CC(C)(C=C(C#N)C(=O)N1CCC[C@@H](c2nc(-c3ccc(Oc4ccccc4)cc3F)c3c(N)nccn23)C1)N1CCN2C(=O)CC[C@@H]2C1 [Compound 63, 2-((R)-3-(8-amino-1-(2-fluoro-4-phenoxyphenyl)imidazo[1,5-a]pyrazin-3-yl)piperidine-1-carbonyl)-4-methyl-4-((R)-6-oxohexahydropyrrolo[1,2-a]pyrazin-2(1H)-yl)pent-2-enenitrile]
14 | 0.8 | CC(C)(C=C(C#N)C(=O)N1CCC[C@@H](c2nc(-c3ccc(Oc4ccccc4)cc3)c3c(N)nccn23)C1)N1CCN2C(=O)CC[C@H]2C1 [Compound 64, 2-((R)-3-(8-amino-1-(4-phenoxyphenyl)imidazo[1,5-a]pyrazin-3-yl)piperidine-1-carbonyl)-4-methyl-4-((S)-6-oxohexahydropyrrolo[1,2-a]pyrazin-2(1H)-yl)pent-2-enenitrile]
15 | 0.6 | CC(C)(C=C(C#N)C(=O)N1CCC[C@@H](c2nc(-c3ccc(Oc4ccccc4)cc3)c3c(N)nccn23)C1)N1CCN2C(=O)CC[C@@H]2C1 [Compound 65, 2-((R)-3-(8-amino-1-(4-phenoxyphenyl)imidazo[1,5-a]pyrazin-3-yl)piperidine-1-carbonyl)-4-methyl-4-((R)-6-oxohexahydropyrrolo[1,2-a]pyrazin-2(1H)-yl)pent-2-enenitrile]

Test system: CD69 expression
Assay: Blockade of CD69 Expression in Human Whole Blood Samples
Format: cell-based
Settings: 30 minutes pre-incubation, activation with anti-IgM, cells gated on CD20, CD69 by FACS
Method: Activation of the B cell receptor leads to increased BTK activity, calcium mobilization and B cell activation (see Honigberg L. A., et. al., Proc Natl Acad Sci USA. 107:13075-80. 2010). […] CD69 was expressed following B cell activation as a measure of BTK activity in whole blood. Aliquots of whole blood were pre-incubated with serial dilutions of test compound for 30 minutes followed by activation with anti-IgM (goat Fab′ 2, 50 μg/ml). Samples were incubated overnight at 37° C. and then stained with PE labeled anti-CD20 and APC labeled anti-CD69 (BD Pharmingen) for 30 minutes according to the manufacturer's directions. Whole blood was then lysed and cells gated on CD20 expression were quantified for CD 69 expression by FACS. The percent inhibition was calculated based on a DMSO control for no inhibition and plotted as a function of test compound concentration from which an IC50 value was calculated.

Row | IC50 [nM] | SMILES
16 | 109 | CC(C)(C=C(C#N)C(=O)N1CCC[C@@H](n2nc(-c3ccc(Oc4ccccc4)cc3F)c3c(N)nccc32)C1)N1CCN(C2COC2)CC1 [Compound 1, (R)-2-(3-(4-amino-3-(2-fluoro-4-phenoxyphenyl)-1H-pyrazolo[4,3-c]pyridin-1-yl)piperidine-1-carbonyl)-4-methyl-4-(4-(oxetan-3-yl)piperazin-1-yl)pent-2-enenitrile]
17 | 114 | CC(C)(C=C(C#N)C(=O)N1CCC[C@@H](n2nc(-c3ccc(Oc4ccccc4)cc3F)c3c(N)nccc32)C1)N1CCN(C2(C)COC2)CC1 [Compound 7, (R)-2-(3-(4-amino-3-(2-fluoro-4-phenoxyphenyl)-1H-pyrazolo[4,3-c]pyridin-1-yl)piperidine-1-carbonyl)-4-methyl-4-(4-(3-methyloxetan-3-yl)piperazin-1-yl)pent-2-enenitrile]
18 | 526 | CC(C)(C)C=C(C#N)C(=O)N1CCC[C@@H](n2nc(-c3ccc(Oc4ccccc4)cc3F)c3c(N)nccc32)C1 [Compound 9, (R)-2-(3-(4-amino-3-(2-fluoro-4-phenoxyphenyl)-1H-pyrazolo[4,3-c]pyridin-1-yl)piperidine-1-carbonyl)-4,4-dimethylpent-2-enenitrile]
19 | 289 | CN1CCN(C(C)(C)/C=C(\C#N)C(=O)N2CCC[C@@H](n3nc(-c4ccc(Oc5ccccc5)cc4F)c4c(N)nccc43)C2)CC1 [Compound 10, (R)-2-(3-(4-amino-3-(2-fluoro-4-phenoxyphenyl)-1H-pyrazolo[4,3-c]pyridin-1-yl)piperidine-1-carbonyl)-4-methyl-4-(4-methylpiperazin-1-yl)pent-2-enenitrile]
20 | 200 | CC(C)(/C=C(\C#N)C(=O)N1CCC[C@@H](n2nc(-c3ccc(Oc4ccccc4)cc3F)c3c(N)nccc32)C1)N1CCOCC1 [Compound 11, (R)-2-(3-(4-amino-3-(2-fluoro-4-phenoxyphenyl)-1H-pyrazolo[4,3-c]pyridin-1-yl)piperidine-1-carbonyl)-4-methyl-4-morpholinopent-2-enenitrile]
21 | 181 | CN(C1COC1)C(C)(C)C=C(C#N)C(=O)N1CCC[C@@H](n2nc(-c3ccc(Oc4ccccc4)cc3F)c3c(N)nccc32)C1 [Compound 14, (R)-2-(3-(4-amino-3-(2-fluoro-4-phenoxyphenyl)-1H-pyrazolo[4,3-c]pyridin-1-yl)piperidine-1-carbonyl)-4-methyl-4-(methyl(oxetan-3-yl)amino)pent-2-enenitrile]
